# Results taken from US11766468B2, “Method of treating prostate cancer with GnRH antagonist” (priority 2012, dated 2023).
# Square brackets hold non-standard residues; d marks the D form. Peptide text beside a SMILES is read from it. * marks the point of attachment. dPhe(4-NHCONH2) = NC(=O)Nc1ccc(C[C@@H](N)C(=O)O)cc1; Dihydroorotyl(S) = O=C1C[C@@H](C(=O)*)NC(=O)N1; dPhe(4-Cl) = N[C@H](Cc1ccc(Cl)cc1)C(=O)O; Phe(4-NH2) = Nc1ccc(C[C@H](N)C(=O)O)cc1; d2Nal = N[C@H](Cc1ccc2ccccc2c1)C(=O)O; Lys(iPr) = CC(C)NCCCC[C@H](N)C(=O)O; d3Pal = N[C@H](Cc1cccnc1)C(=O)O
# Columns and labels:
# [1] = system: follicle stimulating hormone (FSH); assay: CS21: serum FSH over time; format: in vivo, human
# Protocol: Finally, the study evaluated the pharmacokinetics of the degarelix dosing regimens investigated.
# The secondary efficacy endpoints were: the proportion of patients with testosterone surge during the first 2 weeks of treatment; the proportion of patients with testosterone level ≤0.5 ng/mL at day 3; the percentage change in PSA from baseline to day 28; the probability of testosterone ≤0.5 ng/mL from day 56 through day 364; the levels of serum testosterone, LH, FSH and PSA over time through the study; the time to PSA failure, defined as two consecutive increases of 50%, and at least 5 ng/mL as compared to nadir; degarelix concentration over the first month and trough levels at day 308 and 336; the frequency and size of testosterone increases at day 255 and/or 259 compared to the testosterone level at day 252; the quality of life on days 0, 28, 84, 168 and end of study visit; the frequency and intensity of hot flushes experienced (scored daily from study start until end of study visit. In addition, two further secondary endpoints were added: the probability of sufficient testosterone response from day 28 through day 364 (a patient was considered to have insufficient testosterone response if they had one testosterone value >1.0 ng/mL or two consecutive testosterone values >0.5 ng/mL at day 28 onwards); and the percentage change in PSA from baseline to Day 14.
# [2] = in vivo
# Protocol: Laboratory parameters (Table 4) were recorded at screening and during the study.
# testosterone = assay: Example 2: serum testosterone (LC-MS/MS); format: in vivo, human; settings: from Day 28 (Month 1)
# Protocol: Serum testosterone was typically measured at baseline and then monthly in all cases. Serum testosterone was measured at a central laboratory using a validated liquid chromatography system with a tandem mass spectrometry assay with a lower limit of quantitation of 3 ng/dl.
# [3] = parameters: species or system human; settings: in vivo
# Source text: Plasma protein binding is estimated to be approximately 90%.
# [4] = in vivo; remark: listed apart in the source
# Protocol: In this example, a study was conducted to investigate the risk of cardiovascular events when ADT is utilized by a GnRH antagonist versus agonist in patients with or without a history of cardiovascular events.
# Specifically, this study utilized available data yielding a safety database of 2328 PCa (prostate cancer) patients who participated in randomized clinical trials and received treatment with either degarelix or a GnRH agonist for up to 12 months (13 treatment months).
# The study is based on data from two completed Phase 3 and 4 Phase 3b trials, all of which used an active comparator in form of a GnRH agonist. In each study, the primary inclusion criteria were male subjects ≥8 years of age with histologically confirmed adenocarcinoma of the prostate in whom ADT was indicated and a life expectancy of minimum 12 months could be anticipated. All subjects had serum testosterone levels that were either within the age-specified normal range or above the lower limit of the normal range of the central laboratory and ECOG score ≤2. Exclusion criterion ensured that none of the subjects had received long-term ADT (>6 months) before study entry.
# Baseline evaluation included thorough collection of the main demographic characteristics (age, weight, height), lifestyle factors (smoking and drinking habits), and major CV risk factors (treated type 2 diabetes, treated hyperlipidemia, treated hypertension, and systolic and diastolic blood pressure). Patients also underwent physical examination and ECG assessment for potential cardiac morbidities. Medical history of CV events was captured by the following Standardized MedDRA Queries (myocardial infarction, ischemic heart diseases, ischemic stroke, hemorrhagic stroke, other arterial thrombotic/embolic events).
# Cardiovascular events of interest were collected prospectively, typically at monthly visits, as adverse events or serious adverse events with date of occurrence. These events were coded using standard MedDRA terms and grouped into one of the same categories as those used to collect medical history.
# The CV event rates in agonist and antagonist-treated patients were analyzed by 1-Kaplan-Meier plots of time to first-reported CV events and compared with log-rank test. The analysis was performed separately for strata of patients with or without history of CV events. To identify independent predictors of CV events we applied multivariate Cox proportional hazards models.
# To further explore the apparent independent role of treatment choice and identify independent modifiable risk factors, this study established Cox proportional hazard models including CV events occurring during treatment as dependent variable and age, history of CV event, drinking (i.e., high alcohol consumption or abstinence) and smoking habits, hypertension, serum testosterone level and PCa disease stage as independent variables.
# human CYP450 system = format: in vitro ADME
# clinical = settings: human, in vivo, sc
# Protocol: Median degarelix trough concentrations in the maintenance phase with 80 mg at a concentration of 20 mg/mL was 10.9 ng/mL.
# The long half-life after subcutaneous administration is a consequence of a very slow release of degarelix from the depot formed at the injection site(s). The pharmacokinetic behavior of the drug is strongly influenced by its concentration in the injection formulation.
# [5] = human, in vivo
# Source text: Safety data from all clinical trials with degarelix in the treatment of prostate cancer, including patients receiving other dosing regimens, were pooled.
compound,measurement,setting,value
"CCNC(=O)[C@@H]1CCCN1C(=O)[C@H](CCCNC(=N)N)NC(=O)[C@H](CC(C)C)NC(=O)[C@@H](CC(C)C)NC(=O)[C@H](Cc1ccc(O)cc1)NC(=O)[C@H](CO)NC(=O)[C@H](Cc1c[nH]c2ccccc12)NC(=O)[C@H](Cc1c[nH]cn1)NC(=O)[C@@H]1CCC(=O)N1 [Leuprolide, leuprolide, reference compound]",median FSH plateau,[1]; around day 56 until day 364,approximately 4.40 IU/L
same,median FSH level,[1]; by day 14,2.0 IU/L
same,increase in FSH from baseline,[1]; day 1,146%
same,median FSH level (peak),[1]; day 1,22.5 IU/L
"CC(=O)N[C@H](Cc1ccc2ccccc2c1)C(=O)N[C@H](Cc1ccc(Cl)cc1)C(=O)N[C@H](Cc1cccnc1)C(=O)N[C@@H](CO)C(=O)N[C@@H](Cc1ccc(NC(=O)[C@@H]2CC(=O)NC(=O)N2)cc1)C(=O)N[C@H](Cc1ccc(NC(N)=O)cc1)C(=O)N[C@@H](CC(C)C)C(=O)N[C@@H](CCCCNC(C)C)C(=O)N1CCC[C@H]1C(=O)N[C@H](C)C(N)=O [Degarelix, D-Alaninamide, N-acetyl-3-(2-naphthalenyl)-D-alanyl-4-chloro-D-phenylalanyl-3-(3-pyridinyl)-D-alanyl-L-seryl-4-[[[(4S)-hexahydro-2,6-dioxo-4-pyrimidinyl]carbonyl]amino]-L phenylalanyl-4-[(aminocarbonyl)amino]-D-phenylalanyl-L leucyl-N6-(1-methylethyl)-L-lysyl-L-prolyl] (Ac-[d2Nal][dPhe(4-Cl)][d3Pal]S[Phe(4-NH2)](Dihydroorotyl(S))[dPhe(4-NHCONH2)]L[Lys(iPr)]P[dA]-NH2)",decrease in median FSH from baseline,[1]; by day 7,> 80%
same,median FSH level,[1]; by day 7,≤ 1.5 IU/L
same,changes in liver function,[2],no evidence of any clinically significant changes in liver function
same,median testosterone level,testosterone,< 0.5 ng/mL
same,distribution volume,[3],approximately 1 L/kg
same,fraction excreted via the hepato-biliary system,[3],approximately 80%
same,fraction of dose renally excreted,[3],approximately 20%
same,"Any CV adverse event, % (adverse events E)",[4],6.0%
same,"Any CV adverse event, % of patients with adverse events",[4],2.9%
same,"Any CV adverse event, E = Number of adverse events",[4],90
same,"Any CV adverse event, N = Number of patients with adverse events",[4],44
same,"HR for CV event, degarelix versus the agonist",[4],0.62
same,"HR for CV event, degarelix vs agonist",[4],0.49
same,"Hemorrhagic stroke, % (adverse events E)",[4],0.2%
same,"Hemorrhagic stroke, % of patients with adverse events",[4],0.2%
same,"Hemorrhagic stroke, E = Number of adverse events",[4],3
same,"Hemorrhagic stroke, N = Number of patients with adverse events",[4],3
same,"Ischemic heart disease, % (adverse events E)",[4],1.8%
same,"Ischemic heart disease, % of patients with adverse events",[4],1.7%
same,"Ischemic heart disease, E = Number of adverse events",[4],27
same,"Ischemic heart disease, N = Number of patients with adverse events",[4],25
same,"Ischemic stroke, % (adverse events E)",[4],1.1%
same,"Ischemic stroke, % of patients with adverse events",[4],0.9%
same,"Ischemic stroke, E = Number of adverse events",[4],16
same,"Ischemic stroke, N = Number of patients with adverse events",[4],14
same,"Myocardial infarction, % (adverse events E)",[4],1.0%
same,"Myocardial infarction, % of patients with adverse events",[4],0.8%
same,"Myocardial infarction, E = Number of adverse events",[4],15
same,"Myocardial infarction, N = Number of patients with adverse events",[4],13
same,"Other embolic or thrombotic events, arterial, % (adverse events E)",[4],1.9%
same,"Other embolic or thrombotic events, arterial, % of patients with adverse events",[4],1.5%
same,"Other embolic or thrombotic events, arterial, E = Number of adverse events",[4],29
same,"Other embolic or thrombotic events, arterial, N = Number of patients with adverse events",[4],23
same,risk of a CV event lower if taking degarelix versus the agonist,[4],38%
same,substrate for the human CYP450 system,human CYP450 system,not a substrate for the human CYP450 system
same,metabolites in plasma samples,clinical,No significant metabolites were detected
same,Median degarelix trough concentration,"clinical; male, 80 mg",10.9 ng/mL
same,AUC,"clinical; male, 240 mg",29800 ng·h/mL
same,"drug-related erectile dysfunction, gynaecomastia, hyperhidrosis, testicular atrophy, diarrhea: % of patients",[5],≥ 1%
